Test results: ChEMBL document CHEMBL5390209, “Spinosyn A and Its Derivative Inhibit Colorectal Cancer Cell Growth via the EGFR Pathway” (J Nat Prod, 2023)
Activity calls are given as the source filed them. The rule behind the calls is not given here.

Legend:
HT-29 [1] = assay: Antitumor activity against human HT-29 cells xenografted Balb/c mouse assessed as inhibited tumor growth at 2.5 mg/kg/day, ip administrated for every other day and measured after 6 days; format: functional, organism-based; settings: time 6.0 day
SW480 [2] = assay: Inhibition of colony formation in human SW480 cells at 0.75 uM incubated for 14 days by crystal violet staining based colony formation assay; format: functional, cell-based; settings: time 14.0 day
HT-29 [3] = assay: Inhibition of HER2 in human HT-29 cells xenografted in BALB/c nude mouse assessed as reduction in HER2 protein expression level at 2.5 mg/kg/day, ip administrated for every other day and measured after 28 days by immunohistochemistry staining based analysis; format: functional, organism-based; settings: time 28.0 day
HT-29 [4] = assay: Antitumor activity against human HT-29 cells xenografted Balb/c mouse assessed as reduction in Ki67 expression level at 2.5 mg/kg/day, ip administrated for every other day and measured after 28 days by immunohistochemistry staining method; format: functional, organism-based; settings: time 28.0 day
HT-29 [5] = assay: Inhibition of EGFR in human HT-29 cells xenografted in BALB/c nude mouse assessed as reduction in EGFR protein expression level at 2.5 mg/kg/day, ip administrated for every other day and measured after 28 days by immunohistochemistry staining based analysis; format: functional, organism-based; settings: time 28.0 day
[6] = biological target: Receptor tyrosine-protein kinase erbB-2 (Homo sapiens) (UniProt P04626); assay: Inhibition of HER2 in human HT-29 cells at 2 uM by Western blotting analysis; format: cell-based; settings: time 3-15 hrs, TDE = time-dependent effect
HT-29 [7] = assay: Inhibition of colony formation in human HT-29 cells at 0.75 uM incubated for 14 days by crystal violet staining based colony formation assay; format: functional, cell-based; settings: time 14.0 day
HT-29 [8] = assay: Inhibition of HER2 in human HT-29 cells xenografted in BALB/c nude mouse assessed as HER2 protein level in tumor at 2.5 mg/kg/day, ip administrated for every other day and measured after 28 days by Western blotting analysis; format: functional, organism-based; settings: time 28.0 day
[9] = biological target: Epidermal growth factor receptor (Homo sapiens) (UniProt P00533); assay: Inhibition of EGFR in human HT-29 cells at 2 uM by Western blot analysis; format: cell-based; settings: time 3-15 hrs, TDE = time-dependent effect
HT-29 [10] = assay: Inhibition of colony formation in EGFR knockdown human HT-29 cells at 0.75 uM incubated for 14 days by crystal violet staining based colony formation assay; format: functional, cell-based; settings: time 14.0 day
[11] = biological target: Epidermal growth factor receptor (Homo sapiens) (UniProt P00533); assay: Inhibition of EGFR in human HT-29 cells assessed as reduction in STAT3 phosphorylation level at 0.5 to 2 uM incubated for 24 hrs by Western blot analysis; format: cell-based; settings: dose 0.5-2 µM
[12] = biological target: Epidermal growth factor receptor (Homo sapiens) (UniProt P00533); assay: Inhibition of EGFR in human HT-29 cells assessed as reduction in ratio of p-EGFR/EGFR level at 2 uM measured after 3 to 15 hrs by Western blot analysis; format: cell-based; settings: time 3-15 hrs
[13] = biological target: Epidermal growth factor receptor (Homo sapiens) (UniProt P00533); assay: Inhibition of EGFR in human HT-29 cells assessed as reduction in Erk1/2 phosphorylation level at 0.5 to 2 uM incubated for 24 hrs by Western blotting analysis; format: cell-based; settings: dose 0.5-2 µM
HCT-116 [14] = assay: Inhibition of colony formation in human HCT-116 cells at 0.75 uM incubated for 14 days by crystal violet staining based colony formation assay; format: functional, cell-based; settings: time 14.0 day
[15] = Toxicity in human HT-29 cells xenografted Balb/c mouse assessed as change in liver pathology at 2.5 mg/kg/day, ip administrated for every other day and measured after 28 days; format: organism-based; settings: in vivo, 672 h, time 28 day
SW480 [16] = assay: Inhibition of colony formation in double EGFR/HER2 knockdown human SW480 cells at 0.75 uM incubated for 14 days by crystal violet staining based colony formation assay; format: functional, cell-based; settings: time 14.0 day
[17] = Toxicity in human HT-29 cells xenografted Balb/c mouse assessed as change in kidney pathology at 2.5 mg/kg/day, ip administrated for every other day and measured after 28 days; format: organism-based; settings: in vivo, 672 h, time 28 day
HT-29 [18] = assay: Inhibition of colony formation in HER2 knockdown human HT-29 cells at 0.75 uM incubated for 14 days by crystal violet staining based colony formation assay; format: functional, cell-based; settings: time 14.0 day
HT-29 [19] = assay: Inhibition of colony formation in HER2 knockdown human HT-29 cells at 6 uM incubated for 14 days by crystal violet staining based colony formation assay; format: functional, cell-based; settings: time 14.0 day
DLD-1 = assay: Inhibition of colony formation in human DLD-1 cells at 6 uM incubated for 14 days by crystal violet staining based colony formation assay; format: functional, cell-based; settings: time 14.0 day
SW480 [20] = assay: Inhibition of colony formation in double EGFR/HER2 knockdown human SW480 cells at 6 uM incubated for 14 days by crystal violet staining based colony formation assay; format: functional, cell-based; settings: time 14.0 day
HCT-116 [21] = assay: Inhibition of colony formation in human HCT-116 cells at 6 uM incubated for 14 days by crystal violet staining based colony formation assay; format: functional, cell-based; settings: time 14.0 day
HT-29 [22] = assay: Inhibition of colony formation in double EGFR/HER2 knockdown human HT-29 cells at 6 uM incubated for 14 days by crystal violet staining based colony formation assay; format: functional, cell-based; settings: time 14.0 day
[23] = biological target: Epidermal growth factor receptor (Homo sapiens) (UniProt P00533); assay: Inhibition of EGFR in human SW480 cells assessed as reduction in MEK1/2 phosphorylation level at 3.75 to 15 uM incubated for 24 hrs by Western blot analysis; format: cell-based; settings: dose 3.75-15 µM
HT-29 [24] = assay: Inhibition of HER2 in human HT-29 cells xenografted in BALB/c nude mouse assessed as HER2 protein level in tumor at 5 mg/kg/day, ip administrated for every other day and measured after 28 days by Western blotting analysis; format: functional, organism-based; settings: time 28.0 day
[25] = biological target: Epidermal growth factor receptor (Homo sapiens) (UniProt P00533); assay: Inhibition of EGFR in human SW480 cells assessed as reduction in STAT3 phosphorylation level at 3.75 to 15 uM incubated for 24 hrs by Western blot analysis; format: cell-based; settings: dose 3.75-15 µM
HT-29 [26] = assay: Antitumor activity against human HT-29 cells xenografted Balb/c mouse assessed as reduction in tumor cell density at 5 mg/kg/day, ip administrated for every other day and measured after 28 days by Hematoxylin and Eosin staining based method; format: functional, organism-based; settings: time 28.0 day
HT-29 [27] = assay: Antitumor activity against human HT-29 cells xenografted Balb/c mouse assessed as inhibited tumor growth at 5 mg/kg/day, ip administrated for every other day and measured after 6 days; format: functional, organism-based; settings: time 6.0 day
[28] = biological target: Epidermal growth factor receptor (Homo sapiens) (UniProt P00533); assay: Inhibition of EGFR in human HT-29 cells assessed as reduction in MEK1/2 phosphorylation level at 15 uM by Western blot analysis; format: cell-based; settings: time 3-15 hrs, TDE = time-dependent effect
[29] = Toxicity in human HT-29 cells xenografted Balb/c mouse assessed as change in spleen pathology at 5 mg/kg/day, ip administrated for every other day and measured after 28 days; format: organism-based; settings: in vivo, 672 h, time 28 day
[30] = biological target: Epidermal growth factor receptor (Homo sapiens) (UniProt P00533); assay: Inhibition of EGFR in human HT-29 cells assessed as reduction in Erk1/2 phosphorylation level at 3.75 to 15 uM incubated for 24 hrs by Western blotting analysis; format: cell-based; settings: dose 3.75-15 µM
[31] = biological target: Epidermal growth factor receptor (Homo sapiens) (UniProt P00533); assay: Inhibition of EGFR in human HT-29 cells assessed as reduction in STAT3 phosphorylation level at 15 uM by Western blot analysis; format: cell-based; settings: time 3-15 hrs, TDE = time-dependent effect
HT-29 [32] = assay: Inhibition of colony formation in EGFR knockdown human HT-29 cells at 6 uM incubated for 14 days by crystal violet staining based colony formation assay; format: functional, cell-based; settings: time 14.0 day
HT-29 [33] = assay: Inhibition of colony formation in human HT-29 cells at 6 uM incubated for 14 days by crystal violet staining based colony formation assay; format: functional, cell-based; settings: time 14.0 day
[34] = biological target: Epidermal growth factor receptor (Homo sapiens) (UniProt P00533); assay: Inhibition of EGFR in human HT-29 cells assessed as reduction in Erk1/2 phosphorylation level at 15 uM by Western blot analysis; format: cell-based; settings: time 3-15 hrs, TDE = time-dependent effect
LoVo = assay: Inhibition of colony formation in human LoVo cells at 6 uM incubated for 14 days by crystal violet staining based colony formation assay; format: functional, cell-based; settings: time 14.0 day

Epidermal growth factor receptor (Homo sapiens), sequence (P00533 whole entry): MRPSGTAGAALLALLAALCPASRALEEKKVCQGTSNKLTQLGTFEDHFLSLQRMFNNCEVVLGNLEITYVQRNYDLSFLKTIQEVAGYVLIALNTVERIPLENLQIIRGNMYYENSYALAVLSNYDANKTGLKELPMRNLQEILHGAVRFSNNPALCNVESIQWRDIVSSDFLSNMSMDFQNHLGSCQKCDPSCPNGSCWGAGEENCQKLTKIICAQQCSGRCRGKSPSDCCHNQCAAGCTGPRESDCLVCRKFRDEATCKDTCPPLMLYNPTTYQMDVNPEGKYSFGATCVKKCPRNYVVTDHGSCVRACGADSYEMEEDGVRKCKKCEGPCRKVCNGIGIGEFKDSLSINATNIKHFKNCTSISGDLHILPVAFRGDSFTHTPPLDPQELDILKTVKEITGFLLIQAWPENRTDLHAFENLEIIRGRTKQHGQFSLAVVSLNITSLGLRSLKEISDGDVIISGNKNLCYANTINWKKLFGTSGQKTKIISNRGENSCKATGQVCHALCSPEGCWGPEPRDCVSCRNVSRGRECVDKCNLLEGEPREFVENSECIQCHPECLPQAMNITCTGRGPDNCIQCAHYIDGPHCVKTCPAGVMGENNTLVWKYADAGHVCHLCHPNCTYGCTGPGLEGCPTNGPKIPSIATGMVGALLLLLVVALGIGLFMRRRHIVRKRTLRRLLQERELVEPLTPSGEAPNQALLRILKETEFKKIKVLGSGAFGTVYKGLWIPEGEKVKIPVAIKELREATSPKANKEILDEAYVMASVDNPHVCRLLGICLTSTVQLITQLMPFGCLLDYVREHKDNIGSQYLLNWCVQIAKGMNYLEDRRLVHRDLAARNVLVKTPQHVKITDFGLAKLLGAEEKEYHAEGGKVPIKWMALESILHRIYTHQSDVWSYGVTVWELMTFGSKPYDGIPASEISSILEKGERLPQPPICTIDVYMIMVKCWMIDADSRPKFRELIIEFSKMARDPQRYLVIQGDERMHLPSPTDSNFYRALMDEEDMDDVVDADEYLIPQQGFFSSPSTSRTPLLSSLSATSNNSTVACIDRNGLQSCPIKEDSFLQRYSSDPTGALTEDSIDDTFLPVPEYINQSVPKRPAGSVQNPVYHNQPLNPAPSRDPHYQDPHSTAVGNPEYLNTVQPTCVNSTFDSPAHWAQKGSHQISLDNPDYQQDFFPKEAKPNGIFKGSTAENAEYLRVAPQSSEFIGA
Receptor tyrosine-protein kinase erbB-2 (Homo sapiens), sequence (P04626 whole entry): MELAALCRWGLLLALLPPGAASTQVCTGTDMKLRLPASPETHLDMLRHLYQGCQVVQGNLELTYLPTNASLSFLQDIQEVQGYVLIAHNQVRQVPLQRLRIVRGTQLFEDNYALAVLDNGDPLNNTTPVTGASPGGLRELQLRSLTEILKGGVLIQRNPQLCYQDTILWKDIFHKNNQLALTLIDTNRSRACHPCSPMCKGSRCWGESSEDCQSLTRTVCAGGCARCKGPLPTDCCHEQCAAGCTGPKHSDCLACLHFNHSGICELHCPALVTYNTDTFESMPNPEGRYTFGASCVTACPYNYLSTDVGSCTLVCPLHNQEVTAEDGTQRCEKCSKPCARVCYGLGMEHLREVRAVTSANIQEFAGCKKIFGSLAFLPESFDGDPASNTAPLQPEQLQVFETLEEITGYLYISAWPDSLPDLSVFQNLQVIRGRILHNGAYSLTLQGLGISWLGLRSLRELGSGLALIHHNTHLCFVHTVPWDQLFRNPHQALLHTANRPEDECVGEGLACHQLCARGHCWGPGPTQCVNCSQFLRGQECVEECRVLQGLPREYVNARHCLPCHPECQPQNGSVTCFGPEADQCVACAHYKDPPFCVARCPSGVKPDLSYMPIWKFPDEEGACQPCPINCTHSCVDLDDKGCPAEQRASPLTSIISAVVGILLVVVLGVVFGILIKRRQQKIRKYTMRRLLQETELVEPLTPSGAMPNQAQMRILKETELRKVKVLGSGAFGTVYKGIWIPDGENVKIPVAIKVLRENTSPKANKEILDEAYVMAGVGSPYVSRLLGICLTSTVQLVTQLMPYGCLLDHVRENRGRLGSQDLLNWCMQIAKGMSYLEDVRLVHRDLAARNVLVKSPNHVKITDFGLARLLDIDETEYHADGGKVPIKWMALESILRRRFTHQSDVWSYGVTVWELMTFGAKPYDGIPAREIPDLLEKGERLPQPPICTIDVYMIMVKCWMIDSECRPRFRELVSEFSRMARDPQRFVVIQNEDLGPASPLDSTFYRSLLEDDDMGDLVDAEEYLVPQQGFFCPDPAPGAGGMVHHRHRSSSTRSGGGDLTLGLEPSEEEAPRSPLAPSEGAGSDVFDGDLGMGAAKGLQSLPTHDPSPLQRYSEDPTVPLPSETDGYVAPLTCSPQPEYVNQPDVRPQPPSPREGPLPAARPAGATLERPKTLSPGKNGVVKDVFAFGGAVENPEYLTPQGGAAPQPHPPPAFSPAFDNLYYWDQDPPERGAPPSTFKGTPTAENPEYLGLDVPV

For `CC[C@H]1CCC[C@H](O[C@H]2CC[C@H](N(C)CC(O)CN3CCNCC3)[C@@H](C)O2)[C@@H](C)C(=O)C2=C[C@@H]3[C@@H](C=C[C@@H]4C[C@@H](O[C@@H]5O[C@@H](C)[C@H](OC)[C@@H](OC)[C@H]5OC)C[C@@H]34)[C@@H]2CC(=O)O1` (stereo partly specified), the inhibition (HT-29 [1]) was “Active”, the inhibition (SW480 [2]) was “Active” and the inhibition (HT-29 [3]) was “Active”. The Activity (HT-29 [4]) was “Active”, the inhibition (HT-29 [5]) was “Active” and the inhibition [6] was “Tde”. For the same compound, the inhibition (HT-29 [7]) was “Active”, the inhibition (HT-29 [8]) was “Active” and the inhibition [9] was “Tde”. The Activity (HT-29 [10]) was “inactive”, the inhibition [11] was “Active” and the inhibition [12] was “Active”. For the same compound, the inhibition [13] was “Active”, the inhibition (HCT-116 [14]) was “Active” and the Activity [15] was “Non-Toxic”. The Activity (SW480 [16]) was “inactive”, the Activity [17] was “Non-Toxic” and the Activity (HT-29 [18]) was “inactive”.
With `CC[C@H]1CCC[C@H](O[C@H]2CC[C@H](N(C)C)[C@@H](C)O2)[C@@H](C)C(=O)C2=C[C@@H]3[C@@H](C=C[C@@H]4C[C@@H](O[C@@H]5O[C@@H](C)[C@H](OC)[C@@H](OC)[C@H]5OC)C[C@@H]34)[C@@H]2CC(=O)O1` [SPINOSYN A] the Activity (HT-29 [19]) was “inactive”, the inhibition (DLD-1) was “Active” and the Activity (SW480 [20]) was “inactive”. For the same compound, the inhibition (HCT-116 [21]) was “Active”, the Activity (HT-29 [22]) was “inactive” and the inhibition [23] was “Active”. The inhibition (HT-29 [24]) was “Active”, the inhibition [25] was “Active” and the Activity (HT-29 [26]) was “Active”. For the same compound, the inhibition (HT-29 [27]) was “Active”, the inhibition [28] was “Tde” and the Activity [29] was “Non-Toxic”. The inhibition [30] was “Active”, the inhibition [31] was “Tde” and the Activity (HT-29 [32]) was “inactive”. For the same compound, the inhibition (HT-29 [33]) was “Active”, the inhibition [34] was “Tde” and the inhibition (LoVo) was “Active”.
